{"source": "patent US9497960B2", "about": "“Biocide compositions comprising alkoxylation products of isoamyl alcohol derivatives” (COGNIS IP MANAGEMENT GMBH, priority 2010, dated 2016)", "data": [{"system": "barley powdery mildew (BPM)", "assay": "Protective trial with Amistar (Azoxystrobin SC 250) against barley powdery mildew", "assay_type": "in vivo, Blumeria graminis f. sp. hordei on barley", "conditions": "5 g/ha azoxystrobin, adjuvant 50 ml/ha, leaves cut 5 h after application, incubation 10 d", "experimental": "Opus SC125 (BASF) was tested to control barley powdery mildew (BPM) in a curative greenhouse trial, Azoxystrobin SC 250 in a protective trial. In each case, barley was cultivated in a substrate “Frustorder Erde” for three weeks. Each treatment was replicated 14 times. The adjuvant dose rate in each treatment was 50 ml/ha. 5 h after application with the equivalent of 5 g/ha azoxystrobin, leaf segments were cut off at a length of 7 cm from the stem. The leaves of the F and F-1 leaf were placed on agar. After the inoculation, the incubation time was 10 d. The assessment of the infection rate was conducted by a trained biologist.", "units": {"Infection rate of barley powdery mildew after treatment with fungicides, Amistar": "%"}, "values": [{"molecule": "CC(C)CCC(COCCOCCOCCO)C(C)C", "note": "(centres unmarked) [Example 5, Isoamylguerbet + 3EO]", "Infection rate of barley powdery mildew after treatment with fungicides, Amistar": 4}, {"molecule": "CC(C)CCC(COCCOCCOCCOCCOCCOCCOCCOCCOCCOCCO)C(C)C", "note": "(centres unmarked) [Example 3, Isoamylguerbet + 10EO]", "Infection rate of barley powdery mildew after treatment with fungicides, Amistar": 5}, {"molecule": "CC(C)CCC(COCCOCCOCCOCCOCCO)C(C)C", "note": "(centres unmarked) [Example 4, Isoamylguerbet + 5EO]", "Infection rate of barley powdery mildew after treatment with fungicides, Amistar": 3}, {"molecule": "Isoamylguerbet + 3EO + 3PO [Example 2]", "Infection rate of barley powdery mildew after treatment with fungicides, Amistar": 0}, {"molecule": "Isoamylguerbet + 3PO + 3EO [Example 1]", "Infection rate of barley powdery mildew after treatment with fungicides, Amistar": 0}]}, {"system": "not listed separately", "assay": "Foam potential / foam height of aqueous adjuvant solutions", "assay_type": "physicochemical", "conditions": "0.1% aqueous solution/dispersion; Cipac MT 47, Cipac water D", "experimental": "(§1) Definition of “quasistatic”: Static or equilibrium surface tension at an air-liquid interface can be determined by the Du Noüy ring method, the Wilhelmy plate etc. […] To avoid such problems, a dynamic method is used but the frequency is reduced to 0.1 Hz or less, thus close enough to equilibrium conditions. Dynamic surface tension is determined at a frequency of 10 Hz. It was determined at 20° C. with the Krüss Bubble Pressure Tensiometer BP2, available from Krüss GmbH, Borsteler Chaussee 85-99, 22453 Hamburg, Germany. Foam potential was tested with SITA foam tester R-2000, available from SITA Messtechnik GmbH, Gostritzer Str. 61-63, 01217 Dresden, Germany. The results are compiled in Tables 1 and 2", "units": {"Foam hight after 1 m": "mL", "Foam hight after 5 m": "mL"}, "values": [{"molecule": "CC(C)CCC(COCCOCCOCCO)C(C)C", "note": "(centres unmarked) [Example 5, Isoamylguerbet + 3EO]", "Foam hight after 1 m": 0, "Foam hight after 5 m": 0}, {"molecule": "CC(C)CCC(COCCOCCOCCOCCOCCOCCOCCOCCOCCOCCO)C(C)C", "note": "(centres unmarked) [Example 3, Isoamylguerbet + 10EO]", "Foam hight after 1 m": 3, "Foam hight after 5 m": 2}, {"molecule": "CC(C)CCC(COCCOCCOCCOCCOCCO)C(C)C", "note": "(centres unmarked) [Example 4, Isoamylguerbet + 5EO]", "Foam hight after 1 m": 0, "Foam hight after 5 m": 0}, {"molecule": "Isoamylguerbet + 3EO + 3PO [Example 2]", "Foam hight after 1 m": 0, "Foam hight after 5 m": 0}, {"molecule": "Isoamylguerbet + 3PO + 3EO [Example 1]", "Foam hight after 1 m": 1, "Foam hight after 5 m": 0}]}, {"system": "not listed separately", "assay": "Dynamic and quasistatic surface tension, Krüss Bubble Pressure Tensiometer BP2", "assay_type": "physicochemical", "conditions": "dynamic; 0.1% in demineralised water; Kruess BP 2; 20° C.", "experimental": "as §1", "units": {"Surface tension at 10 Hz": "mN/m"}, "values": [{"molecule": "CC(C)CCC(COCCOCCOCCO)C(C)C", "note": "(centres unmarked) [Example 5, Isoamylguerbet + 3EO]", "Surface tension at 10 Hz": 42}, {"molecule": "CC(C)CCC(COCCOCCOCCOCCOCCOCCOCCOCCOCCOCCO)C(C)C", "note": "(centres unmarked) [Example 3, Isoamylguerbet + 10EO]", "Surface tension at 10 Hz": 46}, {"molecule": "CC(C)CCC(COCCOCCOCCOCCOCCO)C(C)C", "note": "(centres unmarked) [Example 4, Isoamylguerbet + 5EO]", "Surface tension at 10 Hz": 39}, {"molecule": "Isoamylguerbet + 3EO + 3PO [Example 2]", "Surface tension at 10 Hz": 45}, {"molecule": "Isoamylguerbet + 3PO + 3EO [Example 1]", "Surface tension at 10 Hz": 45}]}, {"system": "not listed separately", "assay": "Dynamic and quasistatic surface tension, Krüss Bubble Pressure Tensiometer BP2", "assay_type": "physicochemical", "conditions": "quasistatic; 0.1% in demineralised water; Kruess BP 2; 20° C.", "experimental": "as §1", "units": {"Surface tension at 0.1 Hz": "mN/m"}, "values": [{"molecule": "CC(C)CCC(COCCOCCOCCO)C(C)C", "note": "(centres unmarked) [Example 5, Isoamylguerbet + 3EO]", "Surface tension at 0.1 Hz": 30}, {"molecule": "CC(C)CCC(COCCOCCOCCOCCOCCOCCOCCOCCOCCOCCO)C(C)C", "note": "(centres unmarked) [Example 3, Isoamylguerbet + 10EO]", "Surface tension at 0.1 Hz": 36}, {"molecule": "CC(C)CCC(COCCOCCOCCOCCOCCO)C(C)C", "note": "(centres unmarked) [Example 4, Isoamylguerbet + 5EO]", "Surface tension at 0.1 Hz": 30}, {"molecule": "Isoamylguerbet + 3EO + 3PO [Example 2]", "Surface tension at 0.1 Hz": 32}, {"molecule": "Isoamylguerbet + 3PO + 3EO [Example 1]", "Surface tension at 0.1 Hz": 28}]}, {"system": "barley powdery mildew (Blumeria graminis f. sp. hordei)", "assay": "Curative greenhouse trial with Opus against barley powdery mildew", "assay_type": "in vivo, Blumeria graminis f. sp. hordei on barley", "conditions": "curative; Opus 10 g/ha; adjuvant 50 ml/ha; inoculation 2 days prior to application; assessment 14 DAT; barley leaf segments", "experimental": "(§2) Opus SC125 (BASF) was tested to control barley powdery mildew (BPM) in a curative greenhouse trial, Azoxystrobin SC 250 in a protective trial. In each case, barley was cultivated in a substrate “Frustorder Erde” for three weeks. Each treatment was replicated 14 times. The adjuvant dose rate in each treatment was 50 ml/ha. Inoculation of the leaves with powdery mildew (Blumeria graminis f. sp. hordei) was done 2 days prior to application to test Opus' curative action. From the stem, leaf segments were cut off with a length of 10 cm using the flag leaf (F) and 2nd leaf (F-1). Altogether, the leaves of each were placed on benzimidazol agar i.e. 0.5% Agar with 40 ppm benzimidazol. The concentration of Opus for the leaf application was 10 g/ha. Assessment 14 days after treatment (14 DAT) of the efficacy against powdery mildew was done by counting the mildew pustules per leaf on a length of 7 cm. The assessment of the infection rate was conducted by a trained biologist.", "units": {"Infection rate of barley powdery mildew after treatment with fungicides, Opus": "%"}, "values": [{"molecule": "CC(C)CCC(COCCOCCOCCO)C(C)C", "note": "(centres unmarked) [Example 5, Isoamylguerbet + 3EO]", "Infection rate of barley powdery mildew after treatment with fungicides, Opus": 20}, {"molecule": "CC(C)CCC(COCCOCCOCCOCCOCCOCCOCCOCCOCCOCCO)C(C)C", "note": "(centres unmarked) [Example 3, Isoamylguerbet + 10EO]", "Infection rate of barley powdery mildew after treatment with fungicides, Opus": 7}, {"molecule": "CC(C)CCC(COCCOCCOCCOCCOCCO)C(C)C", "note": "(centres unmarked) [Example 4, Isoamylguerbet + 5EO]", "Infection rate of barley powdery mildew after treatment with fungicides, Opus": 12}, {"molecule": "Isoamylguerbet + 3EO + 3PO [Example 2]", "Infection rate of barley powdery mildew after treatment with fungicides, Opus": 8}, {"molecule": "Isoamylguerbet + 3PO + 3EO [Example 1]", "Infection rate of barley powdery mildew after treatment with fungicides, Opus": 3}]}, {"system": "barley powdery mildew (Blumeria graminis f. sp. hordei)", "assay": "Curative greenhouse trial with Opus against barley powdery mildew", "assay_type": "in vivo, Blumeria graminis f. sp. hordei on barley", "conditions": "sum of Opus (curative) and Amistar (protective) trials", "experimental": "as §2", "units": {"Sum of infection rates": "%"}, "values": [{"molecule": "CC(C)CCC(COCCOCCOCCO)C(C)C", "note": "(centres unmarked) [Example 5, Isoamylguerbet + 3EO]", "Sum of infection rates": 24}, {"molecule": "CC(C)CCC(COCCOCCOCCOCCOCCOCCOCCOCCOCCOCCO)C(C)C", "note": "(centres unmarked) [Example 3, Isoamylguerbet + 10EO]", "Sum of infection rates": 12}, {"molecule": "CC(C)CCC(COCCOCCOCCOCCOCCO)C(C)C", "note": "(centres unmarked) [Example 4, Isoamylguerbet + 5EO]", "Sum of infection rates": 15}, {"molecule": "Isoamylguerbet + 3EO + 3PO [Example 2]", "Sum of infection rates": 8}, {"molecule": "Isoamylguerbet + 3PO + 3EO [Example 1]", "Sum of infection rates": 3}]}]}
